12 molecules from patent US9206130B2, “Quinoline derivatives as AXL kinase inhibitors” (Max-Planck-Gesellschaft zur Förderung der Wissenschaften …, priority 2008, dated 2015) can be followed below.

Some results are limits rather than exact numbers.

Usually melting point stands for the temperature of the solid-liquid transition. As a reminder, the IC50 is the midpoint of a concentration-inhibition curve.

Data set [1] addresses T1, wild type AXL (wtAXL) receptor tyrosine kinase (Homo sapiens, UniProt P30530).
T1 construct: WtAXL cDNA was cloned into vector pLXSN(ESK) and transfected into Phoenix E packaging cells; expressed in transfected cells; host or cells: NIH3T3 N7 mouse fibroblasts, retrovirally infected (clone 22)
T1 sequence (P30530 26-894): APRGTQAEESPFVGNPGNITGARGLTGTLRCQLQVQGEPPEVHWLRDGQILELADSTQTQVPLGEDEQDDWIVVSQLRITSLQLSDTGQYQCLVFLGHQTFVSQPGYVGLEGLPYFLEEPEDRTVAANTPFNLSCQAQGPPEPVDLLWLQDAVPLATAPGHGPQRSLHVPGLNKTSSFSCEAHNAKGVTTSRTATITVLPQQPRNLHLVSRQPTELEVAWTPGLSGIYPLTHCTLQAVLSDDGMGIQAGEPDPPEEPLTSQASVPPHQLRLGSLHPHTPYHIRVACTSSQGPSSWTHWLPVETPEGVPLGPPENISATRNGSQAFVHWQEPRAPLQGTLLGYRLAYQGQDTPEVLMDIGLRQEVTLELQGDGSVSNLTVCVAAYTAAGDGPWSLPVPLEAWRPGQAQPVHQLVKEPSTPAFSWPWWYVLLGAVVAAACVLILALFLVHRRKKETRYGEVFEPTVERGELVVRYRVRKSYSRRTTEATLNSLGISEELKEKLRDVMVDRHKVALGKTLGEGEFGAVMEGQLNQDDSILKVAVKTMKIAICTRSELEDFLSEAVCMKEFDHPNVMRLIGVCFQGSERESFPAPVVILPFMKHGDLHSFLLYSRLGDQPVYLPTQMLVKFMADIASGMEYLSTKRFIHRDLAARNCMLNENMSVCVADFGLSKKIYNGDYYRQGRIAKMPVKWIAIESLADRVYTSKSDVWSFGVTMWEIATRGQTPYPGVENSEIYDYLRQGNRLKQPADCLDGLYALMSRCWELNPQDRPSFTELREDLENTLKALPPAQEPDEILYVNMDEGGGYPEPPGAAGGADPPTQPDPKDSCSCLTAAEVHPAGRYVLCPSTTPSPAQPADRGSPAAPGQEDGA
Kind of data set: NIH-3T3-AXL cellular tyrosine kinase assay (inhibition of AXL phosphorylation). The data set is classed as cell-based. Particulars: AXL phosphorylation in NIH-3T3-AXL (clone 22) cells, serum-depleted, 2 h with compound, immunoprecipitation / anti-phosphotyrosine blot. The gist of the method:
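NIH3T3 clones stably expressing human wtAXL (puromycin-selected) were exposed to serially diluted compounds for 2 h. AXL was immunoprecipitated from lysates with anti-AXL antibody, and phosphorylation detected by anti-phosphotyrosine (4G10) western blot with ECL.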

For the molecule `COc1cc2nccc(Oc3ccc(NS(=O)(=O)c4cc(F)ccc4F)cc3F)c2cc1OC` [Example A99, N-[4-(6,7-Dimethoxy-quinolin-4-yloxy)-3-fluoro-phenyl]-2,5-difluoro-benzenesulfonamide], the melting point is 232 to 234 °C. The IC50 in data set [1] was 180 nM.

`COc1cc2nccc(Oc3ccc(NS(=O)(=O)c4ccc(Br)cc4C(F)(F)F)c(F)c3)c2cc1OC` [Example A48, 4-Bromo-N-[4-(6,7-dimethoxy-quinolin-4-yloxy)-2-fluoro-phenyl]-2-trifluoromethyl-benzenesulfonamide] registered a melting point of 242 to 244 °C. Besides, the IC50 in data set [1] is 1500 nM.

Regarding `COc1cc2nccc(Oc3ccc(NS(=O)(=O)c4cccc5cnccc45)cc3)c2cc1OC` [Example A78, Isoquinoline-5-sulfonic acid [4-(6,7-dimethoxy-quinolin-4-yloxy)-phenyl]-amide], the melting point fell in the range of 229 to 231 °C. The IC50 in data set [1] is greater than 3000 nM.

The molecule `COc1cc2c(Oc3ccc(NS(=O)(=O)c4ccccc4C(F)(F)F)cc3F)ccnc2cc1OCCCN1CCC(C)CC1` [Example D17, N-(3-Fluoro-4-{6-methoxy-7-[3-(4-methyl-piperidin-1-yl)-propoxy]-quinolin-4-yloxy}-phenyl)-2-trifluoromethyl-benzenesulfonamide] displayed a melting point of 110 to 112 °C. The IC50 in data set [1] worked out at 46 nM.

In turn, `COc1cc2nccc(Oc3ccc(NS(=O)(=O)c4cc(Cl)sc4Cl)c(F)c3)c2cc1OC` [Example A18, 2,5-Dichloro-thiophene-3-sulfonic acid [4-(6,7-dimethoxy-quinolin-4-yloxy)-2-fluoro-phenyl]-amide] came in with a melting point of 223 to 225 °C. Also, the half-maximal inhibitory concentration (IC50) in data set [1] was determined as 2100 nM.

Consider `Cc1cc(Oc2ccc(NS(=O)(=O)c3cccc(Br)c3)cc2)c2cc(F)ccc2n1` [Example B14, 3-Bromo-N-[4-(6-fluoro-2-methyl-quinolin-4-yloxy)-phenyl]-benzenesulfonamide], for which the melting point was 183 to 184 °C. In addition, in data set [1], the IC50 was less than 1000 nM.

The molecule `COc1cc2nccc(Oc3ccc(NS(=O)(=O)c4ccco4)c(F)c3)c2cc1OC` [Example A22, Furan-2-sulfonic acid [4-(6,7-dimethoxy-quinolin-4-yloxy)-2-fluoro-phenyl]-amide] displayed a melting point of 210 to 212 °C. Further, the IC50 in data set [1] amounted to 9600 nM.

`COc1cc2nccc(Oc3ccc(NS(=O)(=O)c4ccc(Cl)cc4F)cc3)c2cc1OC` [Example A134, 4-Chloro-N-[4-(6,7-dimethoxy-quinolin-4-yloxy)-phenyl]-2-fluoro-benzenesulfonamide] yielded a melting point of 218 to 220 °C. Moreover, the IC50 in data set [1] is greater than 1000 nM.

In turn, `COc1cc2nccc(Oc3ccc(NS(=O)(=O)c4ccc(-c5cnco5)s4)c(F)c3)c2cc1OC` [Example A37, 5-Oxazol-5-yl-thiophene-2-sulfonic acid [4-(6,7-dimethoxy-quinolin-4-yloxy)-2-fluoro-phenyl]-amide] yielded a melting point of 206 to 208 °C. Moreover, the IC50 in data set [1] is greater than 10000 nM.

`COc1cc2nccc(Oc3ccc(NS(=O)(=O)c4cc(Cl)cc(Cl)c4OC)c(F)c3)c2cc1OC` [Example A50, 3,5-Dichloro-N-[4-(6,7-dimethoxy-quinolin-4-yloxy)-2-fluoro-phenyl]-2-methoxy-benzenesulfonamide] registered a melting point of 193 to 195 °C. The IC50 in data set [1] is less than 1000 nM.

On to `Cc1cc(Oc2ccc(NS(=O)(=O)c3cccc(-c4ncccn4)c3)c(F)c2)c2cccc(C(F)(F)F)c2n1` [Example C16, N-[2-Fluoro-4-(2-methyl-8-trifluoromethyl-quinolin-4-yloxy)-phenyl]-3-pyrimidin-2-yl-benzenesulfonamide], for which the melting point lay within 219 to 220 °C. In addition, the IC50 in data set [1] is greater than 10000 nM.

Molecule `COc1cc2nccc(Oc3ccc(NS(=O)(=O)c4cn(C)cn4)c(F)c3)c2cc1OC` [Example A32, 1-Methyl-1H-imidazole-4-sulfonic acid [4-(6,7-dimethoxy-quinolin-4-yloxy)-2-fluoro-phenyl]-amide] returned a melting point of 215 to 217 °C. Also, in data set [1], the IC50 is greater than 10000 nM.
